Literature values in patent US11877989B2, “Nutritional supplement containing L-α-glycerophosphorylcholine” (Energy Beverages LLC, priority 2020, dated 2024).

Tests used:
subjects [1] = conditions: in vivo
[2] = six weeks of supplementation
healthy male subjects = conditions: 1000 mg ingested, 60 min after taking
[3] = in vivo and in vitro assays
[4] = dose of 6 mg/kg
[5] = system: patients after stroke or transient ischemic attacks; conditions: 1000 mg daily for 28 days, then 400 mg three times per day for 5 months
beagles = conditions: up to 300 mg/kg/day
subjects [6] = system: subjects
subjects [7] = conditions: 600 mg per day, after 6 days
[8] = single intramuscular dose
[9] = system: amnesia caused by scopolamine; conditions: oral
rats [10] = system: rats
rats [11] = conditions: up to 1000 mg/kg/day

## CC(C)C[C@H](NC(=O)CN(C)C(=N)N)C(=O)O [Creatyl-L-leucine, creatyl-L-leucine]
other
  solubility relative to creatine and L-leucine: more soluble than either creatine or L-leucine

## CCNC(=O)CC[C@H](N)C(=O)O [L-theanine, N^5-ethyl-L-glutamine]
Subjects [1]
  cognitive function, including verbal fluency, versus placebo: improved

## C[N+](C)(C)CC(=O)[O-] [trimethylglycine]
[2]
  effects of supplementation on body composition, arm size, bench press work capacity and urinary HCTL: improve body composition, arm size, and bench press work capacity, and to attenuate the rise in urinary homocysteine thiolactone (HCTL)

## L-α-glycerophosphorylcholine [α-GPC]
Healthy male subjects
  plasma growth hormone secretion versus placebo: increased significantly
[3]
  mutagenic activity: devoid of mutagenic activity
[4]
  improvement of accuracy during a reaction-time test: 12%
  increase of upper body power output: 12%
[5]
  cognitive recovery: assists in the cognitive recovery
beagles
  symptomology in sub-chronic and chronic oral toxicity studies: reduced activity; slight decreases in food consumption and body weight gain; and slight reduction in liver weight
Subjects [6]; 600 mg
  peak bench press force, greater: 14%
Subjects [6]; 600 mg single dose
  increase of peak growth hormone levels: 44 fold
  peak growth hormone level after supplementation: 8.4 ± 2.1 ng/mL
Subjects [6]; 600 mg single dose, starting value
  peak growth hormone level before supplementation: 0.19 ± 0.06 ng/mL
mice
  oral LD50: ≥ 10,000 mg/kg
Subjects [7]
  lower body force production: increased lower body force production
[8]
  return of plasma choline concentration to baseline: returned to near baseline values over a six hour period
  time of peak plasma choline levels: within about half an hour after the injection
[9]
  effect on amnesia caused by scopolamine in passive avoidance: reverses amnesia
[9]; 5 h before training
  dose of peak effect: 600 mg/kg
Rats [10]
  oral LD50: ≥ 10,000 mg/kg
Rats [11]
  symptomology in sub-chronic and chronic oral toxicity studies: reduced activity; slight decreases in food consumption and body weight gain; and slight reduction in liver weight
